Data on one molecule can be found in patent US20190388437A1, “COMPOSITIONS AND METHODS FOR TREATING BONE AND JOINT INFECTIONS” (priority 2014, published 2019).

≈ marks a conversion by molar mass, not a printed value. Where “and” joins values, the source holds several entries; their conditions need not be identical. Equal values may be shown once. Read-outs that look alike come from different tables or passages of the source.

In data set [1] the test system is Gram-negative (GN) species. The experiment in a line: CLSI broth microdilution / agar dilution MIC, spectrum study. The class given is cell-based. Conditions: all except E. brevis, M. catarrhalis, N. meningitidis. As for the experimental part:
(§1) CLSI broth microdilution (BMD) and anaerobic agar dilution (AD) methods were performed. Modifications of standard test methods included adding 10% human serum, adjusting the medium pH to 5, 6, and 8, and synergy was assessed by the checkerboard method. Mutational rates to R were determined at 4×.

For data set [2], the system named is Gram-positive (GP) species. The data set is described as above. It is filed as cell-based. As for the experimental part:
as §1

Another data set relates to Corynebacterium spp. The experiment in a line: CLSI broth microdilution MIC, spectrum study. It is filed as cell-based. The method, then:
as §1
For orientation: Dilution methods test growth across graded concentrations, often in twofold steps.

Data set [3] deals with E. brevis, M. catarrhalis and N. meningitidis. The experiment in a line: CLSI broth microdilution MIC, spectrum study. The class given is cell-based. As for the experimental part:
as §1

For another data set, the system named is Enterococci. The experiment in a line: CLSI broth microdilution MIC, spectrum study. It is filed as cell-based. The method, then:
as §1

The subject of another data set is M. luteus. Briefly: CLSI broth microdilution MIC, spectrum study. It is filed as cell-based. Conditions: Micrococcus luteus. As for the experimental part:
as §1

The subject of data set [4] is S. aureus. The experiment in a line: CLSI broth microdilution MIC, spectrum study. Conditions: Staphylococcus aureus. The class given is cell-based. The method, then:
as §1

The next data set concerns streptococci. The experiment in a line: CLSI broth microdilution MIC, spectrum study. It is filed as cell-based. The method, then: as §1
Data set [5] concerns S. aureus. The experiment in a line: MIC population distribution, 217 S. aureus Canadian isolates. It is filed as cell-based. The following applies: 217 Canadian isolates.
For data set [6], the system named is methicillin-resistant S. aureus (MRSA) strain USA 300. The experiment in a line: CLSI MIC against MRSA strain USA 300. The class given is cell-based. The following applies: Staphylococcus aureus. As for the experimental part: (§2) Pharmacodynamics of CEM-102 against Methicillin-Resistant Staphylococcus aureus Using In vitro Models. A hollow fiber model was used to evaluate CEM-102 resistance potential in methicillin-resistant S. aureus (MRSA) strain USA 300 (Network of Antimicrobial Resistance in Staphylococcus aureus (MRSA), Chantilly, Va.). USA 300 is a highly virulent strain of MRSA and is the most common community-associated MRSA isolate in the USA. MIC values were determined in accordance with Clinical and Laboratory Standards Institute (CLSI).

Data set [7] has the same test system. The class given is cell-based, Staphylococcus aureus. The method, then: as §2
The hollow fiber model comprised a two-compartment hollow fiber model (Louie et al. Antimicrob Agents Chemother 52:2486-2496(2008)) consisting of a volume of 15 mL in the central compartment, with multiple ports for the removal of broth, delivery of antibiotics, and collection of bacterial and antimicrobial samples. […] All experiments were performed in duplicate.
Hollow fibers contain 15 ml of media was prepared and inoculated with 10^6 colony forming units (CFU)/mL USA 300 bacteria. One of three different dosing regimens of […] was then applied to the fibers: (1) […] q12h; (2) 1200 mg/ml×2, followed by […], q12h; (3) 1500 mg/ml×2, followed by […], q12h.

For data set [8] the following is noted: in the blood; cited from earlier work.

Turning to `CC(=O)O[C@H]1C[C@@]2(C)[C@@H](C[C@@H](O)[C@H]3[C@@]4(C)CC[C@@H](O)[C@@H](C)[C@@H]4CC[C@@]32C)/C1=C(\CCC=C(C)C)C(=O)O` [FA, fusidic acid], the MIC (usually the least concentration at which growth counts as inhibited) is at least 2 mg/L in [1]; at most 0.12 mg/L in the data set on Corynebacterium spp.; 0.12 to 0.5 mg/L in data set [3]; at most 0.5 mg/L with M. luteus; 0.25 mg/L in the data set with S. aureus [4]; 0.25 mg/L (≈ 0.484 µM) in data set [6]. The MIC values range in [2] was in the range of 0.06 to 32 mg/L. Besides, the values for the MIC range in the data set on Enterococci and in the data set with streptococci were 2 to 8 mg/L and 16 to 32 mg/L, respectively. In addition, the “resistance rate (for CEM-102: isolates with MICs of ≥2.0 μg/mL)” value in the data set on S. aureus [5] is reported as 6.5%. The outcome of treatment in [7] (600 mg q12h) was “regrowth and development of resistance by 24 h and 48 h”. Besides, the “reduction of bacterial counts” value in data set [7] (1200 mg×2 then 600 mg q12h) is around 2 logs. The time of rebound in data set [7] (1200 mg×2 then 600 mg q12h) worked out at 72 h; in [7] (1500 mg×2 then 600 mg q12h), 144 h. Besides, the killing result in data set [7] (1500 mg×2 then 600 mg q12h) was “over 2.5 log”. This molecule also came in with a resistance suppressed until in [7] (1500 mg×2 then 600 mg q12h) above 72 h. Further, the Protein binding in data set [8] is 95-97% and 96-98%.
